Data as given in patent US20240124456A1, “AZA-ERGOLINE DERIVATIVE AND PREPARATION METHOD THEREFOR AND APPLICATION THEREOF” (SHANGHAITECH UNIVERSITY, priority 2021, published 2024).

Tested on: C57B6 male mice
Assay: Open field athletic ability test, MK801-induced hyperkinesia
Type: in vivo
Settings: for 45 minutes moving distance: n=8
Experimental: Experimental method: The experimental animals were C57B6 male mice, n=8 in each group. This model used C57B6 mice as experimental animals. The behavioral representation of hyperkinesia in open field environment in mice was induced by acute injection of NMDA antagonist MK801 and modeled to test the inhibitory effect of different compounds on hyperkinesia phenotype induced by MK801. All mouse behavior experiments were carried out during the light period of the mice, and the whole experiment was recorded by the camera and automatic tracking and data statistics were carried out by behavioral tracking software. The compound was administered by intraperitoneal injection. Immediately after the injection, the mice entered the open field and their movement trajectories began to record. After 30 minutes, the mice received 0.2 mg/kg of MK801 by intraperitoneal injection and returned to the open field immediately after administration and the movement trajectories were further recorded for 120 min. The accumulative moving distance of the mice was counted at a data sampling point every five minutes. Data statistics were carried out using Student-t-test, p<0.05 was *, p<0.01 was **, p<0.001 was ***, p<0.0001 was ****. The total moving distance of the mice in 0-45 minutes under the combined action of different doses of (−)-I-10 and MK801 (0.2 mg/kg) is shown in Table 7.

CN(C)C(=O)N[C@H]1CC[C@H](CCN2CCN3c4cccc5[nH]cc(c45)C[C@H]3C2)CC1 [(−)-I-10]
inhibition of the improvement of athletic ability induced by MK801 (in words) (0.4/0.1/0.025 mg/kg): significantly inhibit
45 minutes moving distance (MK801 (0.2 mg/kg) + 0.00625 mg/kg intraperitoneal): 11626 cm
45 minutes moving distance (MK801 (0.2 mg/kg) + 0.025 mg/kg intraperitoneal): 8643 cm
45 minutes moving distance (MK801 (0.2 mg/kg) + 0.1 mg/kg intraperitoneal): 3833 cm
45 minutes moving distance (MK801 (0.2 mg/kg) + 0.4 mg/kg intraperitoneal): 2644 cm
